Source: US8501955B2, “Acetamide derivatives as glucokinase activators, their process and medicinal application” (Advinus Therapeutics Private Limited, priority 2007, dated 2013)

Experiments:
[1] = Kamata et al (2004) Structure 12: 429-438; cited from earlier work
[2] = molecular target: T1, purified human recombinant GK (Homo sapiens, UniProt P35557); assay: Glucokinase activity assay (coupled enzymatic GK/G6PD assay, NADH absorbance at 340 nm); format: biochemical; conditions: for EC50: EC50 of % change in S0.5 of glucokinase for glucose, sigmoidal fit, read-out: EC50 (with respect to % ΔS0.5); for Emax: Emax of % change in S0.5, vehicle S0.5 = 0%, 0 mM glucose = 100%, read-out: % Emax (with respect to % ΔS0.5)
T1 sequence (P35557 1-465): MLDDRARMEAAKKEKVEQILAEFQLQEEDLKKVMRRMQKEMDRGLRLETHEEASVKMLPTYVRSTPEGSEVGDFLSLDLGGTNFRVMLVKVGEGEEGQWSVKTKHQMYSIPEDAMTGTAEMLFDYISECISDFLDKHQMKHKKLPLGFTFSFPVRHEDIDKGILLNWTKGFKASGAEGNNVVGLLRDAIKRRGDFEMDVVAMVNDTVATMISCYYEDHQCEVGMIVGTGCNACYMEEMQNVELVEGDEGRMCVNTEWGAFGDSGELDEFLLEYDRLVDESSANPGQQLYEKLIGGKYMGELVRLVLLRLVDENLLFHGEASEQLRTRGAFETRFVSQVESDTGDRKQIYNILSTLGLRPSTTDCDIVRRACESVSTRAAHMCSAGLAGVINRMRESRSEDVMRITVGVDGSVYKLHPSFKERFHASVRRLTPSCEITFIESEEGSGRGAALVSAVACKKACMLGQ
Procedure, shortened: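 Recombinant human GK was coupled to G6PD in pH 7.2 HEPES buffer with 5 mM ATP, 0.5 mM NAD and varied glucose; initial rates were read as NADH A340. S0.5 was fitted with Hill n = 1.7, and %ΔS0.5 (vehicle = 0%, 0 mM glucose = 100%) against log concentration gave EC50 and Emax.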

primary rat hepatocytes = assay: Measurement of glycogen synthesis in primary rat hepatocytes; format: cell-based; conditions: Rattus norvegicus, Hepatocyte, 3 h, 10 μM compound, 10 mM glucose, fold increase over DMSO control
Description: Primary hepatocytes are collected from male Wistar rats, and tested for viability by trypan blue exclusion. Primary hepatocytes cultures with viability greater than 95% are selected for the glycogen synthesis assay. The cells are seeded in a 48-well plate at a density of 200,000 cells/well in 250 μl Minimal Essential Medium (MEM) containing 10% foetal calf serum (FCS) and 1.7 μM insulin, and incubated for 4 hours at 37° C. to allow attachment. The medium is replaced with fresh MEM containing 10% FCS, 1.7 μM insulin and 10 nM dexamethasone, and the cells are incubated for 16 hours at 37° C. The medium is then replaced with fresh MEM (serum-free) containing 2 μCi/ml of D-[U^14C]-Glucose along with 10 μM of the compound in a final DMSO concentration of 0.1%. The final glucose concentration is brought to 10 mM by the addition of D-Glucose (MEM already contains 5 mM glucose). The cells are incubated for 3 hours at 37° C. The cells are washed twice with 150 mM NaCl, lysed with 0.1 N NaOH, and the lysate precipitated with 8% w/v trichloroacetic acid (TCA) and 1 mg/well unlabeled glycogen as carrier. Cell debris is pelleted by centrifugation, the supernatant is removed, and the glycogen is precipitated with 63% ethanol. After another round of centrifugation, the supernatant is removed, and the pellet containing the precipitated glycogen is dried overnight. De novo synthesized glycogen is estimated in a scintillation counter (MicroBeta Trilux, Perkin Elmer), and expressed as fold increase over DMSO control.
The protocol for the glycogen assay is based on the method described in “Biochem J. 1990 Feb. 15; 266(1): 91-102” with a few minor modifications. The protocol for isolation of primary rat hepatocytes is based on the method described in “Methods in Enzymology, Vol. III. pp 34-50. Ed. by S. P. Colowick and N. O. Kaplan. New York, Academic Press, 1957” with a few minor modifications.
Compounds described in formula (I), in concentration ranges from 1.0 nM to 500 μM, are tested in glycogen synthesis assay described above.

Molecule	melting point [°C]	EC50 [2] [nM]	Emax [2] [%]	hypoglycemia in animal efficacy models [1]	fold induction at 10 µM (primary rat hepatocytes)
Ro-28-1675	–	–	–	cause hypoglycemia	–
O=C(O)Cc1csc(NC(=O)C(Oc2ccc(F)cc2)c2ccc(S(=O)(=O)C3CC3)cc2)n1 (centres unmarked) [Example B1, {2-[2-(4-Cyclopropanesulfonylphenyl)-2-(4-fluorophenoxy)acetylamino]thiazol-4-yl}acetic acid]	72 to 73	–	–	–	–

More lines, main results first:

melting point [°C]	EC50 [2] [nM]	Emax [2] [%]	Molecule	hypoglycemia in animal efficacy models [1]	fold induction at 10 µM (primary rat hepatocytes)
–	370	95	O=C(O)Cc1nc(NC(=O)C(Oc2ccc(F)cc2F)c2ccc(S(=O)(=O)C3CCCC3)cc2)sc1Cl (single isomer, unassigned; (-)) [Example E2, (−)-{5-Chloro-2-[2-(4-cyclopentanesulfonyl-phenyl)-2-(2,4-difluorophenoxy)acetyl-amino]thiazol-4-yl}-acetic acid]	–	8.8
–	830	90	O=C(O)Cc1nc(NC(=O)C(Oc2ccc(Cl)cc2)c2ccc(S(=O)(=O)C3CC3)cc2)sc1Cl (centres unmarked) [Example B6, {5-Chloro-2-[2-(4-chlorophenoxy)-2-(4-cyclopropanesulfonylphenyl)-acetylamino]-thiazol-4-yl}acetic acid]	–	8.6
–	2370	90	O=C(O)Cc1csc(NC(=O)C(Oc2ccc(F)cc2F)c2ccc(S(=O)(=O)C3CC3)cc2)n1 (single isomer, unassigned; (-)) [Example E3, (−){2-[2-(4-Cyclopropanesulfonylphenyl)-2-(2,4-difluorophenoxy)acetylamino]-thiazol-4-yl}acetic acid]	–	9.5
